The IC50 is the concentration that gives 50% inhibition. What is called Kd is the equilibrium constant for the complex coming apart. The inhibition is the relative decrease from the control value, in per cent.

We go through 18 compounds from US9290476B2, “Methylene linked quinolinyl modulators of RORγt” (Janssen Pharmaceutica NV, priority 2012, dated 2016).

Where a name gives a salt, the structure may show the parent alone. Read-outs that look alike come from different tables or passages of the source.

The target in one experiment is human RORγt LBD (Homo sapiens (Human), UniProt P51449). The experiment is described as follows: RORγt reporter assay (GAL4-RORγt LBD luciferase in HEK293T cells). As to conditions: for RORγt reporter Assay, % inhibition @ 6 μM / IC50: HEK293T cells; for IC50: 24 hours compound treatment; for inhibition at 6 µM: HEK-293T, read-out: RORγt reporter Assay, % inhibition @ 6 μM, HEK293T cells, 6 μM. The class given is cell-based. The essentials: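 HEK293T cells transiently co-transfected with GAL4-DBD–wild-type human RORγt LBD (pBIND) and GAL4-responsive firefly luciferase reporter (pGL4.31); renilla luciferase from pBIND normalises transfection/viability. Cells in phenol-red-free DMEM, 5% lipid-reduced FCS, treated with compound 24 h. Firefly/renilla ratio plotted against compound concentration.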
On the technique in general: In a reporter assay the amount or activity of a reporter protein is the signal.

The subject of experiment [1] is IL-17 production by CD4 T cells. As to the kind of experiment: Human Th17 assay (IL-17 production by CD4 T cells under Th17 differentiation). As to conditions: read-out: Human Th17 Assay, IC50 μM. Type of experiment: cell-based. From the text:
The human Th17 assay tests the effect of RORγt modulatory compounds on IL-17 production by CD4 T cells under conditions which favor Th17 differentiation.
Total CD4^+ T cells were isolated from the peripheral blood mononuclear cells (PBMC) of healthy donors using a CD4^+ T cell isolation kit II, following the manufacturer's instructions (Miltenyi Biotec). Cells were resuspended in a medium of RPMI-1640 supplemented with 10% fetal bovine serum, penicillin, streptomycin, glutamate, and β-mercaptoethanol and were added to 96-well plates at 1.5×10^5 per 100 μL per well. 50 μL of compound at titrated concentrations in DMSO were added into each well at final DMSO concentration at 0.2%. Cells were incubated for 1 hour, then 50 μL of Th17 cell differentiation medium was added to each well. The final concentrations of antibodies and cytokines (R&D Systems) in differentiation medium were: 3×10^6/mL anti-CD3/CD28 beads (prepared using human T cell activation/expansion kit, Miltenyi Biotec), 10 μg/mL anti-IL4, 10 μg/mL anti-IFNγ, 10 ng/mL IL1β, 10 ng/mL IL23, 50 ng/mL IL6, 3 ng/mL TGFβ and 20 U/mL IL2. Cells were cultured at 37° C. and 5% CO2 for 3 days. Supernatants were collected and the accumulated IL-17 in culture was measured by using MULTI-SPOT® Cytokine Plate following manufacture's instruction (Meso Scale Discovery). The plate was read using Sector Imager 6000, and IL-17 concentration was extrapolated from the standard curve. The IC50s were determined by GraphPad.

In experiment [2] the target is human RORγt ligand binding domain (RORγt LBD) (Homo sapiens (Human), UniProt P51449). As to the kind of experiment: RORγt ThermoFluor assay (thermal shift binding affinity). The settings on record: estimated from thermal shift. The essentials:
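Thermal shift used 0.065 mg/mL RORγt LBD with 60 μM 1,8-ANS in 100 mM Hepes pH 7.0, 10 mM NaCl, 2.5 mM GSH and 0.002% Tween-20, heated at 1 °C/min. Fluorescence was excited at 380–400 nm and emission read at 500 nm.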

The mark [3] stands for this setting: human CD4+ T cells, IL-17 after 3 days.

human RORγt LBD, sequence (P51449 258-518): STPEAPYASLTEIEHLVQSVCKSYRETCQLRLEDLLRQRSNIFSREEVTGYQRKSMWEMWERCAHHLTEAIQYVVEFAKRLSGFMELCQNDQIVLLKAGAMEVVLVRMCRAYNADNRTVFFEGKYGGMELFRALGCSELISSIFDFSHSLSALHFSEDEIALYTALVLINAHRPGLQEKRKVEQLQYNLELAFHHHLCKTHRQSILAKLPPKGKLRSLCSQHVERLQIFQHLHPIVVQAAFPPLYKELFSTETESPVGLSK
human RORγt ligand binding domain (RORγt LBD), sequence (P51449 other isoform, or with tags, fused parts or gaps): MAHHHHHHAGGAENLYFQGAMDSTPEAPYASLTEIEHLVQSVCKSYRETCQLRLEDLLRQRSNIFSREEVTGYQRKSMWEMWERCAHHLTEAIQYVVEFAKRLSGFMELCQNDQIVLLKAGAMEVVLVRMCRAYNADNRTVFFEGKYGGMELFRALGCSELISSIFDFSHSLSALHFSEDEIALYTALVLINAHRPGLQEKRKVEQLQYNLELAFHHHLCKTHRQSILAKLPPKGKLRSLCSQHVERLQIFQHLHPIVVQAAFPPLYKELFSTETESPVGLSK

Take `COc1nc2ccc(C(O)(c3cnnn3C)c3cnc(C)n3C)cc2c(Cl)c1Cc1ccc(C(F)(F)F)cc1` (single isomer, unassigned) [Example 80C, (4-chloro-2-methoxy-3-(4-(trifluoromethyl)benzyl)quinolin-6-yl)(1,2-dimethyl-1H-imidazol-5-yl)(1-methyl-1H-1,2,3-triazol-5-yl)methanol]: on human RORγt LBD, the “RORγt reporter Assay, % inhibition @ 6 μM” value was 93%. Further, the 50% inhibitory concentration (IC50) in experiment [1] (setting [3]) was found to be 0.002 µM.

For the compound `COc1nc2ccc(C(O)(c3cncn3C)C3CCN(C(C)=O)CC3)cc2c(Cl)c1Cc1ccc(-n2cccn2)cc1` (single isomer, unassigned) [Example 60B, 1-(4-((3-(4-(1H-Pyrazol-1-yl)benzyl)-4-chloro-2-methoxyquinolin-6-yl)(hydroxy)(1-methyl-1H-imidazol-5-yl)methyl)piperidin-1-yl)ethanone], in experiment [1] (Homo sapiens, CD4+ T, 72 h, human CD4+ T cells, IL-17 after 3 days), the concentration for half-maximal inhibition (IC50) is 0.17 µM.

On to `COc1nc2ccc(C(O)(c3ccc(C(F)(F)F)nc3)c3cncn3C)cc2c(Cl)c1Cc1ccc(C(F)(F)F)cc1` (single isomer, unassigned) [Example 62B, (4-Chloro-2-methoxy-3-(4-(trifluoromethyl)benzyl)quinolin-6-yl)(1-methyl-1H-imidazol-5-yl)(6-(trifluoromethyl)pyridin-3-yl)methanol], for which the 50% inhibitory concentration (IC50) in experiment [1] (Homo sapiens, CD4+ T, 72 h) came out at 0.1 µM. As for `CCc1nc2ccc(C(O)(c3cnnn3C)C3CN(S(C)(=O)=O)C3)cc2c(Cl)c1Cc1ccc(C(F)(F)F)cc1` (single isomer, unassigned) [Example 91C, (4-Chloro-2-ethyl-3-(4-(trifluoromethyl)benzyl)quinolin-6-yl)(1-methyl-1H-1,2,3-triazol-5-yl)(1-(methylsulfonyl)azetidin-3-yl)methanol], the “RORγt reporter Assay, % inhibition @ 6 μM” value at human RORγt LBD turned out to be 102%. Besides, the IC50 in experiment [1] (setting [3]) was determined as 0.0025 µM. Consider `COc1nc2ccc(C(O)(c3ccc(Cl)cc3)c3cncn3C)cc2c(Cl)c1Cc1ccc(C#N)cc1` (single isomer, unassigned) [Example 63C, 4-((4-Chloro-6-((4-chlorophenyl)(hydroxy)(1-methyl-1H-imidazol-5-yl)methyl)-2-methoxyquinolin-3-yl)methyl)benzonitrile], for which, in experiment [1] (Homo sapiens, CD4+ T, 72 h), the IC50 amounted to 0.038 µM. `COc1nc2ccc(C(O)(c3ccc(Cl)cc3)c3cncn3C)cc2c(Cl)c1Cc1ccc(-n2cccn2)cc1` (single isomer, unassigned) [Example 33C, (3-(4-(1H-pyrazol-1-yl)benzyl)-4-chloro-2-methoxyquinolin-6-yl)(4-chlorophenyl)(1-methyl-1H-imidazol-5-yl)methanol]: the 50% inhibitory concentration (IC50) in experiment [1] (Homo sapiens, CD4+ T, 72 h) is 0.067 µM. In the case of `COc1nc2ccc(C(O)(c3cnnn3C)c3cnnn3C)cc2c(Cl)c1Cc1ccc(-n2cccn2)cc1` [Example 61, (3-(4-(1H-Pyrazol-1-yl)benzyl)-4-chloro-2-methoxyquinolin-6-yl)bis(1-methyl-1H-1,2,3-triazol-5-yl)methanol], in experiment [1] (Homo sapiens, CD4+ T, 72 h), the 50% inhibitory concentration (IC50) amounted to 0.0042 µM. As for `COc1nc2ccc(C(O)(c3ccc(C(F)(F)F)nc3)c3cncn3C)cc2c(Cl)c1Cc1ccc(C(F)(F)F)cc1` (single isomer, unassigned) [Example 62C, (4-Chloro-2-methoxy-3-(4-(trifluoromethyl)benzyl)quinolin-6-yl)(1-methyl-1H-imidazol-5-yl)(6-(trifluoromethyl)pyridin-3-yl)methanol], the 50% inhibitory concentration (IC50) in experiment [1] is 0.064 µM. `COc1nc2ccc(C(O)(c3ccc(C(F)(F)F)nc3)c3cncn3C)cc2c(Cl)c1Cc1ccc(-n2cccn2)cc1` (single isomer, unassigned) [Example 35C, (3-(4-(1H-pyrazol-1-yl)benzyl)-4-chloro-2-methoxyquinolin-6-yl)(1-methyl-1H-imidazol-5-yl)(6-(trifluoromethyl)pyridin-3-yl)methanol]: the IC50 in experiment [1] came to 0.051 µM. With `Cc1ccc(C(O)(c2ccc3nc(C#N)c(Cc4ccc(C(F)(F)F)cc4)c(C#N)c3c2)c2cnnn2C)c(C)n1` (single isomer, unassigned) [Example 88B, 6-((2,6-Dimethylpyridin-3-yl)(hydroxy)(1-methyl-1H-1,2,3-triazol-5-yl)methyl)-3-(4-(trifluoromethyl)benzyl)quinoline-2,4-dicarbonitrile], the equilibrium dissociation constant (Kd) in experiment [2] is 0.029 µM. On human RORγt LBD, half-maximal inhibition (IC50) required 0.14 µM and the inhibition at 6 µM came to 96%. Take `COc1nc2ccc(C(O)(c3ccc(C(F)(F)F)nc3)c3cncn3C)cc2c(Cl)c1Cc1ccc(-n2cccn2)cc1` (single isomer, unassigned) [Example 35B, (3-(4-(1H-pyrazol-1-yl)benzyl)-4-chloro-2-methoxyquinolin-6-yl)(1-methyl-1H-imidazol-5-yl)(6-(trifluoromethyl)pyridin-3-yl)methanol]: in experiment [1] (Homo sapiens, CD4+ T, 72 h), the half-inhibitory concentration (IC50) worked out at 0.074 µM.

With `COc1nc2ccc(C(O)(c3cccnc3)c3cccc(Cl)c3)cc2c(Cl)c1Cc1ccc(F)cc1` (stereo not drawn) [Example 7, (4-Chloro-3-(4-fluorobenzyl)-2-methoxyquinolin-6-yl)(3-chlorophenyl)(pyridin-3-yl)methanol], the dissociation constant (Kd) in experiment [2] is 0.04 µM. Also, at human RORγt LBD, the half-maximal inhibitory concentration (IC50) is greater than 6 µM and the inhibition at 6 µM was 32%. On to `COc1nc2ccc(C(O)(c3ccc(F)cc3)c3cncn3C)cc2c(Cl)c1Cc1ccc(S(C)(=O)=O)cc1` (single isomer, unassigned) [Example 54B, (4-chloro-2-methoxy-3-(4-(methylsulfonyl)benzyl)quinolin-6-yl)(4-fluorophenyl)(1-methyl-1H-imidazol-5-yl)methanol], for which, in experiment [2], the Kd was 0.84 µM. Besides, at human RORγt LBD, the half-inhibitory concentration (IC50) worked out at 2 µM and the inhibition at 6 µM came to 86%. With `COc1nc2ccc(C(O)(c3cncn3C)C3CCN(C(C)=O)CC3)cc2c(Cl)c1Cc1ccc(-n2cccn2)cc1` (single isomer, unassigned) [Example 60C, 1-(4-((3-(4-(1H-Pyrazol-1-yl)benzyl)-4-chloro-2-methoxyquinolin-6-yl)(hydroxy)(1-methyl-1H-imidazol-5-yl)methyl)piperidin-1-yl)ethanone], the IC50 in experiment [1] (setting [3]) was determined as 0.16 µM. With `COc1nc2ccc(C(O)(c3ccc(Cl)cc3)c3cncn3C)cc2c(Cl)c1Cc1ccc(-n2cccn2)cc1` (stereo not drawn) [Example 33A, (3-(4-(1H-Pyrazol-1-yl)benzyl)-4-chloro-2-methoxyquinolin-6-yl)(4-chlorophenyl)(1-methyl-1H-imidazol-5-yl)methanol], the half-inhibitory concentration (IC50) in experiment [1] (Homo sapiens, CD4+ T, 72 h) stood at 0.14 µM.

Regarding `OC(c1cccnc1)(c1ccc2nc(Cl)c(Cc3cccc(Cl)c3)cc2c1)c1cncs1` (stereo not drawn) [Example 10], the dissociation constant Kd in experiment [2] was 0.099 µM. In addition, on human RORγt LBD, it took 2.3 µM to reach half-maximal inhibition (IC50) and the inhibition at 6 µM was determined as 77%. The corresponding values for `CON(C)c1nc2ccc(C(O)(c3ccc(C(F)(F)F)nc3)c3cncn3C)cc2c(Cl)c1Cc1ccc(-n2cccn2)cc1` (stereo not drawn) [Example 67A, (3-(4-(1H-Pyrazol-1-yl)benzyl)-4-chloro-2-(methoxy(methyl)amino)quinolin-6-yl)(1-methyl-1H-imidazol-5-yl)(6-(trifluoromethyl)pyridin-3-yl)methanol TFA?] are 0.018 µM, 0.044 µM and 115%. For the compound `COc1nc2ccc(C(O)(c3ccc(C(F)(F)F)nc3)c3cncn3C)cc2c(Cl)c1Cc1ccc(-n2cccn2)cc1` (stereo not drawn) [Example 35A, (3-(4-(1H-Pyrazol-1-yl)benzyl)-4-chloro-2-methoxyquinolin-6-yl)(1-methyl-1H-imidazol-5-yl)(6-(trifluoromethyl)pyridin-3-yl)methanol.TFA], the IC50 in experiment [1] (Homo sapiens, CD4+ T, 72 h) came to 0.3 µM.
